Columns and labels:
Type in all cases: in vivo
[1] = system: ABUTH (Abutilon theoprasti); experiment: Greenhouse preemergence herbicidal activity, ABUTH; conditions: 20 DAT
Experimental: (§1) The test plants have been seeded, separately for each species, in plastic containers in sandy loamy soil containing 5% of organic matter.
(§2) The containers were irrigated gently to promote germination and growth and subsequently covered with transparent plastic hoods until the plants had rooted.
(§3) The plants have been cultivated due to their individual requirements at 10-25° C. and 20-35° C. The plants were irrigated due to their necessity.
(§4) The racemic mixture (±)-2-exo-(2-Methylbenzyloxy)-1-methyl-4-isopropyl-7-oxabicyclo[2.2.1]heptane was used as herbicide A and formulated as emulsifiable concentrates with an active ingredient concentration of 50 g/l, 100 g/l or 750 g/l respectively.
(§5) Pyroxasulfone (herbicide B) was used as a water dispersible granule (85% WG).
(§6) In the following experiments, the herbicidal activity for the individual herbicidal compositions (solo and mixture applications) was assessed 20 days after treatment (DAT).
(§7) The evaluation for the damage on undesired weeds caused by the chemical compositions was carried out using a scale from 0 to 100%, compared to the untreated control plants. Here, 0 means no damage and 100 means complete destruction of the plants.
(§8) E=X+Y−(X·Y/100) where X=effect in percent using herbicide A at an application rate a; • Y=effect in percent using herbicide B at application rate b; • E=expected effect (in %) of herbicide A+herbicide B at application rates a+b.
(§9) The value E corresponds to the effect (plant damage or injury) which is to be expected if the activity of the individual compounds is additive. If the observed effect is higher than the value E calculated according to the Colby equation, a synergistic effect is present.

[2] = system: AMARE (Amaranthus retroflexus); experiment: Greenhouse preemergence herbicidal activity, AMARE; conditions: herbicide A solo 25 g ai/ha, 20 DAT
Experimental: as §1, §2, §3, §4, §5, §6
The evaluation for the damage on undesired weeds caused by the chemical compositions was carried out using a scale from 0 to 100%, compared to the untreated control plants. […]
as §9

[3] = system: ANTAR (Anthemis arvensis); experiment: Greenhouse preemergence herbicidal activity, ANTAR; conditions: 20 DAT
Experimental: as §1, §2, §3, §4, §5, §6, §7, §8, §9

AVEFA (Avena fatua) [4] = experiment: Greenhouse preemergence herbicidal activity, AVEFA; conditions: 20 DAT
Experimental: as §1, §2, §3, §4, §5, §6, §7, §8, §9

[5] = system: CHEAL (Chenopodium album); experiment: Greenhouse preemergence herbicidal activity, CHEAL; conditions: 20 DAT
Experimental: as §1, §2, §3, §4, §5, §6, §7, §8, §9

GALAP (Galium aparine) = experiment: Greenhouse preemergence herbicidal activity, GALAP; conditions: 20 DAT
Experimental: as §1, §2, §3, §4, §5, §6, §7, §8, §9

[6] = system: GERDI (Geranium dissectum); experiment: Greenhouse preemergence herbicidal activity, GERDI; conditions: 20 DAT
Experimental: as §1, §2, §3, §4, §5, §6, §7, §8, §9

[7] = system: LOLMU (Lolium multiflorum); experiment: Greenhouse preemergence herbicidal activity, LOLMU; conditions: 20 DAT
Experimental: as §1, §2, §3, §4, §5, §6, §7, §8, §9

[8] = system: POLCO (Polygonum convolvulus); experiment: Greenhouse preemergence herbicidal activity, POLCO; conditions: 20 DAT
Experimental: as §1, §2, §3, §4, §5, §6, §7, §8, §9

STEME (Stellaria media) [9] = experiment: Greenhouse preemergence herbicidal activity, STEME; conditions: 20 DAT
Experimental: as §1, §2, §3, §4, §5, §6, §7, §8, §9

[10] = system: AMARE (Amaranthus retroflexus); experiment: Greenhouse postemergence herbicidal activity, AMARE; conditions: herbicide A solo 250 g ai/ha, 20 DAT
Experimental: as §1
(§10) For the post emergence treatment, the plants were first grown to the 2 leaf station (GS 12). Here, the herbicidal compositions were suspended or emulsified in water as distribution medium and sprayed using finely distributing nozzels.
as §3, §4, §5
(§11) In the following experiments, the herbicidal activity for the individual herbicidal compositions (solo and mixture applications) was assessed 20 days after treatment (DAT). […]
as §9

[11] = system: ANTAR (Anthemis arvensis); experiment: Greenhouse postemergence herbicidal activity, ANTAR; conditions: 20 DAT
Experimental: as §1, §10, §3, §4, §5, §6, §7, §8, §9

AVEFA (Avena fatua) [12] = experiment: Greenhouse postemergence herbicidal activity, AVEFA; conditions: 20 DAT
Experimental: as §1, §10, §3, §4, §5, §6, §7, §8, §9

[13] = system: CHEAL (Chenopodium album); experiment: Greenhouse postemergence herbicidal activity, CHEAL; conditions: 20 DAT
Experimental: as §1, §10, §3, §4, §5, §6, §7, §8, §9

[14] = system: LOLMU (Lolium multiflorum); experiment: Greenhouse postemergence herbicidal activity, LOLMU; conditions: 20 DAT
Experimental: as §1, §10, §3, §4, §5, §6, §7, §8, §9

[15] = system: POLCO (Polygonum convolvulus); experiment: Greenhouse postemergence herbicidal activity, POLCO; conditions: herbicide A solo 250 g ai/ha, 20 DAT
Experimental: as §1, §10, §3, §4, §5, §11, §9

[16] = system: SORHA (Sorghum halepense); experiment: Greenhouse postemergence herbicidal activity, SORHA; conditions: herbicide A solo 62.5 g ai/ha, 20 DAT
Experimental: as §1, §10, §3, §4, §5, §11, §9

STEME (Stellaria media) [17] = experiment: Greenhouse postemergence herbicidal activity, STEME; conditions: 20 DAT
Experimental: as §1, §10, §3, §4, §5, §6, §7, §8, §9

Work on Cc1ccccc1CO[C@@H]1C[C@@]2(C(C)C)CC[C@]1(C)O2 (racemic) [herbicide A, (±)-2-exo-(2-Methylbenzyloxy)-1-methyl-4-isopropyl-7-oxabicyclo[2.2.1]heptane] yielded a herbicidal activity ([1]; herbicide A solo 37.5 g ai/ha) of 0%, a herbicidal activity ([1]; herbicide A solo 75 g ai/ha) of 0% and a herbicidal activity ([1]; herbicide A solo 150 g ai/ha) of 0%. The herbicidal activity ([1]; herbicide A solo 300 g ai/ha) was 0%, the herbicidal activity [2] was 0% and the herbicidal activity ([3]; herbicide A solo 25 g ai/ha) was 0%. It also gave a herbicidal activity ([3]; herbicide A solo 37.5 g ai/ha) of 0%, a herbicidal activity ([3]; herbicide A solo 50 g ai/ha) of 0% and a herbicidal activity ([3]; herbicide A solo 75 g ai/ha) of 0%. For the same compound, the herbicidal activity ([3]; herbicide A solo 100 g ai/ha) was 0%, the herbicidal activity ([3]; herbicide A solo 150 g ai/ha) was 0% and the herbicidal activity ([3]; herbicide A solo 200 g ai/ha) was 0%. The herbicidal activity ([3]; herbicide A solo 300 g ai/ha) was 0%, the herbicidal activity (AVEFA (Avena fatua) [4]; herbicide A solo 37.5 g ai/ha) was 0% and the herbicidal activity (AVEFA (Avena fatua) [4]; herbicide A solo 50 g ai/ha) was 0%. It also gave a herbicidal activity (AVEFA (Avena fatua) [4]; herbicide A solo 75 g ai/ha) of 20%, a herbicidal activity (AVEFA (Avena fatua) [4]; herbicide A solo 150 g ai/ha) of 40% and a herbicidal activity ([5]; herbicide A solo 25 g ai/ha) of 20%. The herbicidal activity ([5]; herbicide A solo 37.5 g ai/ha) was 20%, the herbicidal activity ([5]; herbicide A solo 50 g ai/ha) was 30% and the herbicidal activity ([5]; herbicide A solo 75 g ai/ha) was 20%. The herbicidal activity (GALAP (Galium aparine); herbicide A solo 25 g ai/ha) was 0%, the herbicidal activity (GALAP (Galium aparine); herbicide A solo 50 g ai/ha) was 0% and the herbicidal activity (GALAP (Galium aparine); herbicide A solo 200 g ai/ha) was 30%. It also gave a herbicidal activity (GALAP (Galium aparine); herbicide A solo 300 g ai/ha) of 30%, a herbicidal activity ([6]; herbicide A solo 50 g ai/ha) of 50% and a herbicidal activity ([6]; herbicide A solo 100 g ai/ha) of 50%. The herbicidal activity ([6]; herbicide A solo 150 g ai/ha) was 50%, the herbicidal activity ([7]; herbicide A solo 25 g ai/ha) was 50% and the herbicidal activity ([7]; herbicide A solo 37.5 g ai/ha) was 60%. For the same compound, the herbicidal activity ([8]; herbicide A solo 37.5 g ai/ha) was 0%, the herbicidal activity ([8]; herbicide A solo 50 g ai/ha) was 0% and the herbicidal activity ([8]; herbicide A solo 75 g ai/ha) was 0%. The herbicidal activity ([8]; herbicide A solo 100 g ai/ha) was 0%, the herbicidal activity ([8]; herbicide A solo 200 g ai/ha) was 0% and the herbicidal activity ([8]; herbicide A solo 300 g ai/ha) was 0%. For the same compound, the herbicidal activity (STEME (Stellaria media) [9]; herbicide A solo 25 g ai/ha) was 20%, the herbicidal activity (STEME (Stellaria media) [9]; herbicide A solo 37.5 g ai/ha) was 0% and the herbicidal activity (STEME (Stellaria media) [9]; herbicide A solo 50 g ai/ha) was 20%. For the same compound, the herbicidal activity (STEME (Stellaria media) [9]; herbicide A solo 75 g ai/ha) was 20%, the herbicidal activity [10] was 25% and the herbicidal activity ([11]; herbicide A solo 62.5 g ai/ha) was 40%. The herbicidal activity ([11]; herbicide A solo 175 g ai/ha) was 90%, the herbicidal activity ([11]; herbicide A solo 250 g ai/ha) was 90% and the herbicidal activity (AVEFA (Avena fatua) [12]; herbicide A solo 43.75 g ai/ha) was 25%. It also gave a herbicidal activity (AVEFA (Avena fatua) [12]; herbicide A solo 87.5 g ai/ha) of 30%, a herbicidal activity (AVEFA (Avena fatua) [12]; herbicide A solo 125 g ai/ha) of 60% and a herbicidal activity ([13]; herbicide A solo 62.5 g ai/ha) of 30%. For the same compound, the herbicidal activity ([13]; herbicide A solo 87.5 g ai/ha) was 65%, the herbicidal activity ([13]; herbicide A solo 125 g ai/ha) was 50% and the herbicidal activity ([13]; herbicide A solo 175 g ai/ha) was 60%. The herbicidal activity ([13]; herbicide A solo 500 g ai/ha) was 75%, the herbicidal activity ([14]; herbicide A solo 43.75 g ai/ha) was 0% and the herbicidal activity ([14]; herbicide A solo 62.5 g ai/ha) was 0%. It also gave a herbicidal activity ([14]; herbicide A solo 87.5 g ai/ha) of 0%, a herbicidal activity ([14]; herbicide A solo 125 g ai/ha) of 0% and a herbicidal activity [15] of 40%. For the same compound, the herbicidal activity [16] was 40%, the herbicidal activity (STEME (Stellaria media) [17]; herbicide A solo 43.75 g ai/ha) was 0% and the herbicidal activity (STEME (Stellaria media) [17]; herbicide A solo 62.5 g ai/ha) was 25%. For the same compound, the herbicidal activity (STEME (Stellaria media) [17]; herbicide A solo 125 g ai/ha) was 65%, the herbicidal activity (STEME (Stellaria media) [17]; herbicide A solo 175 g ai/ha) was 40% and the herbicidal activity (STEME (Stellaria media) [17]; herbicide A solo 250 g ai/ha) was 70%.

Source: patent publication US10980232B2, “Herbicidal composition comprising cinmethylin and pyroxasulfone” (BASF Agro B.V., priority 2015, dated 2021)
